In patent publication US20080280891A1, “Anti-cancer agents and uses thereof” (Locus Pharmaceuticals, Inc., priority 2006, published 2008):

Assays:
Format in all cases: cell-based
[1] = tested on: MCF-7 breast cancer cells; assay: Cell cycle assay (Example 163), G2/M block in MCF-7 cells; details: flow cytometry (PI), Table 2; for activation at 1 µM: Homo sapiens, MCF7, 24 h
Experimental: (§1) MCF-7 breast cancer cells and Jurkat T-cell leukemic cells were grown (and maintained) in EMEM and RPMI media, respectively, containing 10% fetal calf serum.
(§2) Cells were allowed to adhere for 24 hrs. After adherence, cell culture media was changed to that containing 0.5% FCS. Thirty minutes post-media change, test compounds were added at a concentration of 1 μM. Twenty-fours after test agent addition, cells were analyzed for cell cycle status as described below.
(§3) Cell cycle status was analyzed by flow cytometry. Briefly, cells were collected and washed with FACs buffer (Pharmingen) and resuspended and fixed in 1 mL of 80% ethanol for 1 hr. Cells were washed with FACs buffer and resuspended in propidium iodide(PI)/RNase staining buffer (Pharmingen). PI is a fluorescent dye that labels nucleic acids such as DNA. The fluorescence within a cell (in the presence of PI) is proportional to the amount of DNA within a cell. The cell content of DNA is an indices of status in the cell cycle. […] Cells in the S phase have DNA content that lies between these extremes.
(§4) For testing of cell cycle effects of test agents the percentage of cells within the G1 and G2/M phase were measured.

Hela cells = assay: Cell viability assay (WST-1), Hela cells; details: WST-1, 48-72 hrs, 0.5% fetal calf serum
Experimental: Jurkat and Hela cells were cultured in RPMI and EMEM media, respectively, containing 0.5% fetal calf serum. Cells were plated in a volume of 100 μL in a 96 well format. Test compounds were included in the culture media at concentrations ranging from 1 nM to 10 μM for a period of 48-72 hrs. Cell viability was determined using the WST-1 calorimetric mitochondrial reduction assay. Briefly, 10 μL of WST-1 reagent was included in the culture well for a period of 1 to 4 hrs. The WST-1 reaction was read on a multiwell spectrophotometer as the difference in the absorbance between 450 nm and 600 nm (baseline). Absorbance was proportional to the number of living cells in the culture well. Concentration response curves and IC50 values were calculated using GraphPAD Prism graphing and curve fitting program.

[2] = tested on: Jurkat T-cell leukemic cells; assay: Cell cycle assay (Example 163), G2/M block in Jurkat cells; details: 24 h, flow cytometry (PI), Table 2; for activation at 0.1 µM: Homo sapiens, Jurkat
Experimental: as §1
Test agents were added a concentration of 0.1 μM. Twenty-fours after test agent addition, cells were analyzed for cell cycle status as described below.
as §3, §4

[3] = tested on: NCI-H522 non small cell lung cancer cells; assay: Cell cycle assay (Example 164), G2/M block in NCI-H522 cells; details: Homo sapiens; for activation at 0.1 µM: 24 h, flow cytometry (PI)
Experimental: (§5) The adherent MCF-7 breast cancer cells and NCI-H522 non small cell lung cancer cells were grown and maintained in EMEM cell culture media containing 10% fetal calf serum.
as §2, with “either 1.0 or 0.1 μM (as specified in the Tables). Twenty-four hours” for “1 μM. Twenty-fours”
as §3, with “indicator” for “indices”
as §4

[4] = tested on: MCF-7 breast cancer cells; assay: Cell cycle assay (Example 164), G2/M block in MCF-7 cells; details: for MCF-7 G2/M Block 1 μM / activation at 0.1 µM: 24 h, flow cytometry (PI); for MCF-7 G2/M Block 1 μM: Table 3; for activation at 0.1 µM / IC50: Homo sapiens, MCF7; for activation at 0.1 µM: Table 4; for IC50: MCF-7, footnotes * and ** of Table 4, read-out: IC50 (footnote mark in column MCF-7 G2/M Block)
Experimental: as §5
as §2, with “either 1.0 or 0.1 μM (as specified in the Tables). Twenty-four hours” for “1 μM. Twenty-fours”
as §3, with “indicator” for “indices”
as §4

SMILES	IC50 (Hela cells; Homo sapiens, HeLa)	activation at 0.1 µM ([3]; Table 4)	activation at 0.1 µM [4]	other results
Oc1cc(Nc2cccnc2)cc(-c2cccc3cccnc23)c1 [3-(Pyridin-3-ylamino)-5-quinolin-8-yl-phenol]	1000 to 30000 nM	–	–	activation at 1 µM [1]: < 50%; activation at 0.1 µM [2]: < 50%
Oc1cc(Nc2ccccn2)cc(-c2cccc3[nH]ccc23)c1 [3-(1H-Indol-4-yl)-5-(pyridin-2-ylamino)-phenol]	1 to 999 nM	–	–	activation at 1 µM [1]: < 50%; activation at 0.1 µM [2]: ≥ 50%
Oc1cc(-c2cccc3[nH]ccc23)nc(Nc2cccnc2)n1 [6-(1H-Indol-4-yl)-2-(pyridin-3-ylamino)-pyrimidin-4-ol]	1000 to 30000 nM	–	–	activation at 0.1 µM [2]: ≥ 50%
Oc1cc(Nc2cccnc2)cc(-c2cccc3c2CCC3)c1 [3-Indan-4-yl-5-(pyridin-3-ylamino)-phenol]	1000 to 30000 nM	–	–	activation at 1 µM [1]: < 50%; activation at 0.1 µM [2]: < 50%
ON=C(c1cccnc1)c1cc(O)cc(-c2cccc3[nH]ccc23)c1 [[3-Hydroxy-5-(1H-indol-4-yl)-phenyl]-pyridin-3-yl-methanone oxime]	1000 to 30000 nM	–	–	activation at 1 µM [1]: < 50%; activation at 0.1 µM [2]: < 50%
Oc1cc(Nc2cccnc2)cc(-c2cccc(-c3ccccc3)c2)c1 [5-(Pyridin-3-ylamino)-[1,1′;3′,1″]terphenyl-3-ol]	1000 to 30000 nM	–	–	–
O=C(c1ccc(Cl)nc1)c1cc(O)cc(-c2cccc3[nH]ccc23)c1 [(6-Chloro-pyridin-3-yl)-[3-hydroxy-5-(1H-indol-4-yl)-phenyl]-methanone]	1 to 999 nM	–	–	activation at 1 µM [1]: < 50%; activation at 0.1 µM [2]: ≥ 50%
[O-][n+]1cccc(Nc2cc(O)cc(-c3cccc4[nH]ccc34)c2)c1 [3-(1H-Indol-4-yl)-5-(1-oxy-pyridin-3-ylamino)-phenol]	–	–	–	MCF-7 G2/M Block 1 μM ([1]; 24 h): Y (Y indicates a 50% or greater increase in the number of cells in the G2/M phase, as compared to control); IC50 (Hela cells): 1 to 999 nM; Jurkat G2/M Block 0.1 μM [2]: Y (Y indicates a 50% or greater increase in the number of cells in the G2/M phase, as compared to control)
O=C(c1cccnc1)c1cc(O)cc(-c2cccc3[nH]cc(C(=O)C(F)(F)F)c23)c1 [2,2,2-Trifluoro-1-{4-[3-hydroxy-5-(pyridine-3-carbonyl)-phenyl]-1H-indol-3-yl}-ethanone]	1000 to 30000 nM	–	–	activation at 1 µM [1]: < 50%; activation at 0.1 µM [2]: < 50%
CCc1ncccc1Nc1cc(O)cc(-c2cccc3[nH]ccc23)c1 [3-(2-Ethyl-pyridin-3-ylamino)-5-(1H-indol-4-yl)-phenol]	–	–	–	activation at 0.1 µM ([3]; Table 3): ≥ 50%; MCF-7 G2/M Block 1 μM [4]: Y (Y indicates a 50% or greater increase in the number of cells in the G2/M phase, as compared to control)
COC(=O)Nc1cc(C(=O)c2ccnc(N3CCOCC3)c2)cc(-c2cccc3[nH]ccc23)c1 [[3-(1H-Indol-4-yl)-5-(2-morpholin-4-yl-pyridine-4-carbonyl)-phenyl]-carbamic acid methyl ester]	–	≥ 50%	≥ 50%	–
CC(=O)Nc1cc(-c2cccc(C)c2)cc(-c2cccc3[nH]ccc23)c1 [N-[5-(1H-Indol-4-yl)-3′-methyl-biphenyl-3-yl]-acetamide]	–	≥ 50%	≥ 50%	–
CS(=O)(=O)Nc1cc(C(=O)c2ccnc(N3CCCCC3)c2)cc(-c2cccc3[nH]ccc23)c1 [N-[3-(1H-Indol-4-yl)-5-(3,4,5,6-tetrahydro-2H-[1,2′]bipyridinyl-4′-carbonyl)-phenyl]-methanesulfonamide]	–	≥ 50%	< 50%	–
CC(=O)Nc1cc(-c2ccc(F)cc2F)cc(-c2cccc3[nH]ccc23)c1 [N-[5-(1H-Indol-4-yl)-2′,4′-difluoro-biphenyl-3-yl]-acetamide]	–	≥ 50%	≥ 50%	–
COC(=O)Nc1cc(-c2ccc(OC)nc2)cc(-c2cccc3[nH]ccc23)c1 [[3-(1H-Indol-4-yl)-5-(6-methoxy-pyridin-3-yl)-phenyl]-carbamic acid methyl ester]	–	≥ 50%	< 50%	IC50 [4]: 100 to 1000 nM
O=[N+]([O-])c1ccc2ccn(-c3cc(O)cc(Nc4cccnc4)c3)c2c1 [3-(6-Nitro-indol-1-yl)-5-(pyridin-3-ylamino)-phenol]	1 to 999 nM	–	–	activation at 0.1 µM [2]: ≥ 50%
Oc1cc(Nc2cccnc2)cc(-c2ccc3c(c2)CCC3)c1 [3-Indan-5-yl-5-(pyridin-3-ylamino)-phenol]	1000 to 30000 nM	–	–	–
CS(=O)(=O)Nc1cc(-c2cccc([N+](=O)[O-])c2)cc(-c2cccc3[nH]ccc23)c1 [N-[5-(1H-indol-4-yl)-3′-nitro-biphenyl-3-yl]-methanesulfonamide]	–	≥ 50%	≥ 50%	–
COC(=O)Nc1cc(C(=O)c2cc(C)nc(N3CCOCC3)c2)cc(-c2cccc3[nH]ccc23)c1 [[3-(1H-Indol-4-yl)-5-(2-methyl-6-morpholin-4-yl-pyridine-4-carbonyl)-phenyl]-carbamic acid methyl ester]	–	≥ 50%	≥ 50%	–
CC(=O)Nc1cc(C(=O)c2cc(C)nc(N(C)C)c2)cc(-c2cccc3[nH]ccc23)c1 [N-[3-(2-Dimethylamino-6-methyl-pyridine-4-carbonyl)-5-(1H-indol-4-yl)-phenyl]-acetamide]	–	≥ 50%	≥ 50%	–
COC(=O)Nc1cc(-c2ccncc2)cc(-c2cccc3[nH]ccc23)c1 [[3-(1H-Indol-4-yl)-5-pyridin-4-yl-phenyl]-carbamic acid methyl ester]	–	≥ 50%	≥ 50%	–
COc1cc(C(=O)c2cc(NS(C)(=O)=O)cc(-c3cccc4[nH]ccc34)c2)cc(C)n1 [N-[3-(1H-Indol-4-yl)-5-(2-methoxy-6-methyl-pyridine-4-carbonyl)-phenyl]-methanesulfonamide]	–	≥ 50%	≥ 50%	–
COC(=O)Nc1cc(Nc2ccc(C#N)nc2)cc(-c2cccc3[nH]ccc23)c1 [[3-(6-Cyano-pyridin-3-ylamino)-5-(1H-indol-4-yl)-phenyl]-carbamic acid methyl ester]	–	–	–	activation at 0.1 µM ([3]; Table 3): < 50%; MCF-7 G2/M Block 1 μM [4]: Y (Y indicates a 50% or greater increase in the number of cells in the G2/M phase, as compared to control)
COc1ccc(-c2cc(NC(C)=O)cc(-c3cccc4[nH]ccc34)c2)cn1 [N-[3-(1H-Indol-4-yl)-5-(6-methoxy-pyridin-3-yl)-phenyl]-acetamide]	–	≥ 50%	≥ 50%	–
CC(=O)Nc1cc(-c2ccc(C(F)(F)F)cc2)cc(-c2cccc3[nH]ccc23)c1 [N-[5-(1H-Indol-4-yl)-4′-trifluoromethyl-biphenyl-3-yl]-acetamide]	–	< 50%	< 50%	IC50 ([3]; H522, footnotes * and ** of Table 4, read-out: IC50 (footnote mark in H522 G2/M Block)): 100 to 1000 nM; IC50 [4]: 100 to 1000 nM
Cc1cc(C(=O)c2cc(NS(C)(=O)=O)cc(-c3cccc4[nH]ccc34)c2)cc(N2CCOCC2)n1 [N-[3-(1H-Indol-4-yl)-5-(2-methyl-6-morpholin-4-yl-pyridine-4-carbonyl)-phenyl]-methanesulfonamide]	–	≥ 50%	≥ 50%	–
CN(C)c1cc(C(=O)c2ccnc(N(C)C)c2)cc(-c2cccc3[nH]ccc23)c1 [[3-Dimethylamino-5-(1H-indol-4-yl)-phenyl]-(2-dimethylamino-pyridin-4-yl)-methanone]	–	≥ 50%	< 50%	–
CS(=O)(=O)Nc1cc(-c2cc(C(F)(F)F)ccc2F)cc(-c2cccc3[nH]ccc23)c1 [N-[2′-fluoro-5-(1H-indol-4-yl)-5′-trifluoromethyl-biphenyl-3-yl]-methanesulfonamide]	–	≥ 50%	≥ 50%	–
